According to the NIST ThermoML archive (doi:10.1016/j.jct.2016.06.034):

Assay: mn = molality of the nth substance listed, in mol/kg
Details: for mass density / electrical conductivity / speed of sound: 84.5 kPa, Liquid; for mass density: Vibrating tube method; for surface tension liquid-gas: platinum plate method; for electrical conductivity: Alternating current cell with electrodes; for speed of sound: Frequency=3 MHz, Sing-around technique in a fixed-path interferometer

CCCCCCCCCCn1cc[n+](C)c1.[Br-] [1-decyl-3-methylimidazolium bromide] + O
Details	electrical conductivity [S/m]	mass density [kg/m3]	speed of sound [m/s]	surface tension liquid-gas [mN/m]
303.15 K, m1 = 0.0095	–	996.005	–	–
303.15 K, m1 = 0.01379	–	996.169	–	–
303.15 K, m1 = 0.01652	–	996.273	–	–
303.15 K, m1 = 0.02179	–	996.475	–	–
303.15 K, m1 = 0.02615	–	996.639	–	–
303.15 K, m1 = 0.03106	–	996.825	–	–
303.15 K, m1 = 0.03338	–	996.912	–	–
303.15 K, m1 = 0.03819	–	997.092	–	–
303.15 K, m1 = 0.0406	–	997.186	–	–
303.15 K, m1 = 0.04332	–	997.276	–	–
303.15 K, m1 = 0.04614	–	997.377	–	–
303.15 K, m1 = 0.05515	–	997.672	–	–
303.15 K, m1 = 0.06396	–	997.957	–	–
303.15 K, m1 = 0.07815	–	998.413	–	–
303.15 K, m1 = 0.122	–	999.792	–	–
303.15 K, m1 = 0.1726	–	1001.35	–	–
303.15 K, m1 = 0.2247	–	1002.91	–	–
303.15 K, m1 = 0.2539	–	1003.77	–	–
308.15 K, m1 = 1e-05	0.000218	–	–	–
308.15 K, m1 = 3e-05	0.000397	–	–	–
308.15 K, m1 = 4e-05	0.000606	–	–	–
308.15 K, m1 = 7e-05	0.000959	–	–	–
308.15 K, m1 = 0.0001	0.00133	–	–	–
308.15 K, m1 = 0.00013	0.00169	–	–	–
308.15 K, m1 = 0.00017	0.00228	–	–	–
308.15 K, m1 = 0.00024	0.0032	–	–	–
308.15 K, m1 = 0.00039	0.0051	–	–	–
308.15 K, m1 = 0.00069	0.00888	–	–	–
308.15 K, m1 = 0.00098	0.0124	–	–	–
308.15 K, m1 = 0.0014	0.0178	–	–	–
308.15 K, m1 = 0.00242	0.0302	–	–	–
308.15 K, m1 = 0.00326	0.0401	–	–	–
308.15 K, m1 = 0.00348	0.0427	–	–	–
308.15 K, m1 = 0.0063	0.0752	–	–	–
308.15 K, m1 = 0.00691	–	–	–	46.2
308.15 K, m1 = 0.00928	0.108	–	–	–
308.15 K, m1 = 0.0095	–	994.377	1521.3	–
308.15 K, m1 = 0.01212	0.139	–	–	–
308.15 K, m1 = 0.01368	–	–	–	40.98
308.15 K, m1 = 0.01379	–	994.536	1522	–
308.15 K, m1 = 0.01499	0.169	–	–	–
308.15 K, m1 = 0.01652	–	994.638	1522.4	–
308.15 K, m1 = 0.01731	0.193	–	–	–
308.15 K, m1 = 0.01851	–	–	–	39.3
308.15 K, m1 = 0.02003	0.22	–	–	–
308.15 K, m1 = 0.02179	–	994.831	1523.2	–
308.15 K, m1 = 0.02313	0.25	–	–	–
308.15 K, m1 = 0.0251	–	–	–	38.12
308.15 K, m1 = 0.02573	0.275	–	–	–
308.15 K, m1 = 0.02615	–	994.993	1523.7	–
308.15 K, m1 = 0.0282	0.298	–	–	–
308.15 K, m1 = 0.03065	0.321	–	–	–
308.15 K, m1 = 0.03094	–	–	–	37.39
308.15 K, m1 = 0.03106	–	995.17	1524.4	–
308.15 K, m1 = 0.03312	0.343	–	–	–
308.15 K, m1 = 0.03338	–	995.253	1524.7	–
308.15 K, m1 = 0.03447	–	–	–	36.95
308.15 K, m1 = 0.03589	0.367	–	–	–
308.15 K, m1 = 0.03819	–	995.428	1525.4	–
308.15 K, m1 = 0.03832	0.388	–	–	–
308.15 K, m1 = 0.04053	0.406	–	–	–
308.15 K, m1 = 0.0406	–	995.52	1525.5	–
308.15 K, m1 = 0.04063	–	–	–	36.49
308.15 K, m1 = 0.04223	0.419	–	–	–
308.15 K, m1 = 0.04332	–	995.61	1525.8	–
308.15 K, m1 = 0.04385	0.429	–	–	–
308.15 K, m1 = 0.04569	0.439	–	–	–
308.15 K, m1 = 0.04614	–	995.708	1526	–
308.15 K, m1 = 0.0479	–	–	–	36.69
308.15 K, m1 = 0.04793	0.449	–	–	–
308.15 K, m1 = 0.04988	0.457	–	–	–
308.15 K, m1 = 0.05063	–	–	–	37.17
308.15 K, m1 = 0.05219	–	–	–	37.66
308.15 K, m1 = 0.05236	0.466	–	–	–
308.15 K, m1 = 0.05506	–	–	–	37.95
308.15 K, m1 = 0.05515	–	995.996	1526.1	–
308.15 K, m1 = 0.05533	0.477	–	–	–
308.15 K, m1 = 0.05718	0.483	–	–	–
308.15 K, m1 = 0.05941	0.492	–	–	–
308.15 K, m1 = 0.06163	0.498	–	–	–
308.15 K, m1 = 0.06382	0.507	–	–	–
308.15 K, m1 = 0.06396	–	996.274	1526.1	–
308.15 K, m1 = 0.07	–	–	–	38.27
308.15 K, m1 = 0.07815	–	996.719	1526	–
308.15 K, m1 = 0.09792	–	–	–	38.41
308.15 K, m1 = 0.122	–	998.067	1525.6	–
308.15 K, m1 = 0.1694	–	–	–	38.44
308.15 K, m1 = 0.1726	–	999.588	1525.1	–
308.15 K, m1 = 0.2247	–	1001.11	1524.7	–
308.15 K, m1 = 0.2268	–	–	–	38.2
308.15 K, m1 = 0.2539	–	1001.95	1524.4	–
